Experimental data as given in US11707440B2 (priority 2017, dated 2023).

What was measured:
[1] = tested on: patients with treatment-resistant depression (TRD); experiment: CADSS, Example 7; conditions: human, in vivo, other: intranasal
Experimental: (§1) Adverse events were monitored throughout the study. Other safety assessments (i.e., laboratory tests, vital signs, physical examination) were performed at pre-specified time points. Vital signs, the Clinician Administered Dissociative States Scale (CADSS; Bremner, “Measurement of dissociative states with the clinician-administered dissociative states scale (CADSS)”, J. Traumatic Stress, 1998, 11(1):125-136), and the 4-item positive symptom subscale from the Brief Psychiatric Rating Scale (BPRS; Overall, “The Brief Psychiatric Rating Scale. Psychological Reports”, 1962, 10:799-812) were assessed pre-dose, at 40 minutes, and 2 hours post-dose.

[2] = tested on: patients with treatment-resistant depression (TRD); experiment: Adverse events, Example 7; type: in vivo, human; conditions: for Dissociation, number of participants / Dissociative disorder, % of participants / Dissociative disorder, number of participants / Dizziness, % of participants / Dizziness, number of participants / Dysgeusia, % of participants / Dysgeusia, number of participants / Feeling abnormal, % of participants / Feeling abnormal, number of participants / Headache, % of participants / Headache, number of participants / Hypersomnia, % of participants / Hypersomnia, number of participants / Hypertension, number of participants / Hypoesthesia oral, % of participants / Hypoesthesia oral, number of participants / Insomnia, number of participants / Nasal discomfort, number of participants / Nausea, % of participants / Nausea, number of participants / Oropharyngeal pain, number of participants / Polyuria, number of participants / Sedation, % of participants / Sedation, number of participants / Throat irritation, % of participants / Throat irritation, number of participants / Total with events, % of participants / Total with events, number of participants / Tunnel vision, number of participants / Vertigo, % of participants / Vertigo, number of participants / Vision blurred, number of participants / Dissociation, % of participants / Hypertension, % of participants / Insomnia, % of participants / Nasal discomfort, % of participants / Oropharyngeal pain, % of participants / Polyuria, % of participants / Tunnel vision, % of participants / Vision blurred, % of participants: double-blind
Experimental: as §1
Safety data were analyzed in Period 1, Period 2, double-blind, and open-label data sets, for all subjects receiving at least 1 dose of study medication.

adult subjects with TRD = conditions: US patients
Text: Adverse events were reported by the subject (or, when appropriate, by a caregiver, surrogate, or the subject's legally acceptable representative) for the duration of the study. Adverse events were followed by the investigator. TEAEs of special interest were examined separately.
The verbatim terms used in the eCRF by investigators to identify adverse events were coded using the MedDRA. All reported adverse events with onset during the double-blind induction phase (i.e., TEAEs, and adverse events that have worsened since baseline) were included in the analysis. For each adverse event, the percentage of subjects who experience at least 1 occurrence of the given event was summarized by treatment group. Adverse events occurring during the follow-up phase were summarized separately.
TEAEs of special interest were examined separately. AEs of special interest were listed in the SAP. Subjects who died, who discontinued treatment due to an adverse event, or who experienced a severe or a serious adverse event were summarized separately.
An adverse event is any untoward medical occurrence in a clinical study subject administered a medicinal (investigational or non-investigational) product. […]

CN[C@]1(c2ccccc2Cl)CCCCC1=O [esketamine, (S)-2-(2-chlorophenyl)-2-(methylamino)cyclohexanone]
Time of peak of perceptual changes/dissociative symptoms (CADSS) [1]: 30 to 40 min | Time to resolution of perceptual changes/dissociative symptoms (CADSS) [1]: ≤ 2 h | Dissociation, number of participants ([2]; 28 mg): 0 | Dissociative disorder, % of participants ([2]; 28 mg): 11% | Dissociative disorder, number of participants ([2]; 28 mg): 2 | Dizziness, % of participants ([2]; 28 mg): 21% | Dizziness, number of participants ([2]; 28 mg): 4 | Dysgeusia, % of participants ([2]; 28 mg): 11% | Dysgeusia, number of participants ([2]; 28 mg): 2 | Feeling abnormal, % of participants ([2]; 28 mg): 11% | Feeling abnormal, number of participants ([2]; 28 mg): 2 | Headache, % of participants ([2]; 28 mg): 32% | Headache, number of participants ([2]; 28 mg): 6 | Hypersomnia, % of participants ([2]; 28 mg): 11% | Hypersomnia, number of participants ([2]; 28 mg): 2 | Hypertension, number of participants ([2]; 28 mg): 0 | Hypoesthesia oral, % of participants ([2]; 28 mg): 5% | Hypoesthesia oral, number of participants ([2]; 28 mg): 1 | Insomnia, number of participants ([2]; 28 mg): 0 | Nasal discomfort, number of participants ([2]; 28 mg): 0 | Nausea, % of participants ([2]; 28 mg): 11% | Nausea, number of participants ([2]; 28 mg): 2 | Oropharyngeal pain, number of participants ([2]; 28 mg): 0 | Polyuria, number of participants ([2]; 28 mg): 0 | Sedation, % of participants ([2]; 28 mg): 5% | Sedation, number of participants ([2]; 28 mg): 1 | Throat irritation, % of participants ([2]; 28 mg): 5% | Throat irritation, number of participants ([2]; 28 mg): 1 | Total with events, % of participants ([2]; 28 mg): 58% | Total with events, number of participants ([2]; 28 mg): 11 | Tunnel vision, number of participants ([2]; 28 mg): 0 | Vertigo, % of participants ([2]; 28 mg): 11% | Vertigo, number of participants ([2]; 28 mg): 2 | Vision blurred, number of participants ([2]; 28 mg): 0 | Dissociation, % of participants ([2]; 56 mg): 35% | Dissociation, number of participants ([2]; 56 mg): 7 | Dissociative disorder, % of participants ([2]; 56 mg): 5% | Dissociative disorder, number of participants ([2]; 56 mg): 1 | Dizziness, % of participants ([2]; 56 mg): 40% | Dizziness, number of participants ([2]; 56 mg): 8 | Dysgeusia, % of participants ([2]; 56 mg): 15% | Dysgeusia, number of participants ([2]; 56 mg): 3 | Feeling abnormal, % of participants ([2]; 56 mg): 5% | Feeling abnormal, number of participants ([2]; 56 mg): 1 | Headache, % of participants ([2]; 56 mg): 15% | Headache, number of participants ([2]; 56 mg): 3 | Hypersomnia, number of participants ([2]; 56 mg): 0 | Hypertension, % of participants ([2]; 56 mg): 10% | Hypertension, number of participants ([2]; 56 mg): 2 | Hypoesthesia oral, % of participants ([2]; 56 mg): 20% | Hypoesthesia oral, number of participants ([2]; 56 mg): 4 | Insomnia, % of participants ([2]; 56 mg): 10% | Insomnia, number of participants ([2]; 56 mg): 2 | Nasal discomfort, % of participants ([2]; 56 mg): 10% | Nasal discomfort, number of participants ([2]; 56 mg): 2 | Nausea, % of participants ([2]; 56 mg): 20% | Nausea, number of participants ([2]; 56 mg): 4 | Oropharyngeal pain, % of participants ([2]; 56 mg): 5% | Oropharyngeal pain, number of participants ([2]; 56 mg): 1 | Polyuria, % of participants ([2]; 56 mg): 10% | Polyuria, number of participants ([2]; 56 mg): 2 | Sedation, % of participants ([2]; 56 mg): 10% | Sedation, number of participants ([2]; 56 mg): 2 | Throat irritation, number of participants ([2]; 56 mg): 0 | Total with events, % of participants ([2]; 56 mg): 80% | Total with events, number of participants ([2]; 56 mg): 16 | Tunnel vision, number of participants ([2]; 56 mg): 0 | Vertigo, % of participants ([2]; 56 mg): 5% | Vertigo, number of participants ([2]; 56 mg): 1 | Vision blurred, number of participants ([2]; 56 mg): 0 | Dissociation, % of participants ([2]; 84 mg): 24% | Dissociation, number of participants ([2]; 84 mg): 4 | Dissociative disorder, % of participants ([2]; 84 mg): 24% | Dissociative disorder, number of participants ([2]; 84 mg): 4 | Dizziness, % of participants ([2]; 84 mg): 47% | Dizziness, number of participants ([2]; 84 mg): 8 | Dysgeusia, % of participants ([2]; 84 mg): 29% | Dysgeusia, number of participants ([2]; 84 mg): 5 | Feeling abnormal, % of participants ([2]; 84 mg): 6% | Feeling abnormal, number of participants ([2]; 84 mg): 1 | Headache, % of participants ([2]; 84 mg): 18% | Headache, number of participants ([2]; 84 mg): 3 | Hypersomnia, number of participants ([2]; 84 mg): 0 | Hypertension, % of participants ([2]; 84 mg): 6% | Hypertension, number of participants ([2]; 84 mg): 1 | Hypoesthesia oral, % of participants ([2]; 84 mg): 12% | Hypoesthesia oral, number of participants ([2]; 84 mg): 2 | Insomnia, number of participants ([2]; 84 mg): 0 | Nasal discomfort, % of participants ([2]; 84 mg): 6% | Nasal discomfort, number of participants ([2]; 84 mg): 1 | Nausea, % of participants ([2]; 84 mg): 24% | Nausea, number of participants ([2]; 84 mg): 4 | Oropharyngeal pain, % of participants ([2]; 84 mg): 12% | Oropharyngeal pain, number of participants ([2]; 84 mg): 2 | Polyuria, number of participants ([2]; 84 mg): 0 | Sedation, % of participants ([2]; 84 mg): 6% | Sedation, number of participants ([2]; 84 mg): 1 | Throat irritation, % of participants ([2]; 84 mg): 12% | Throat irritation, number of participants ([2]; 84 mg): 2 | Total with events, % of participants ([2]; 84 mg): 88% | Total with events, number of participants ([2]; 84 mg): 15 | Tunnel vision, % of participants ([2]; 84 mg): 12% | Tunnel vision, number of participants ([2]; 84 mg): 2 | Vertigo, % of participants ([2]; 84 mg): 6% | Vertigo, number of participants ([2]; 84 mg): 1 | Vision blurred, % of participants ([2]; 84 mg): 12% | Vision blurred, number of participants ([2]; 84 mg): 2 | Dissociation, % of participants ([2]; Total esketamine): 20% | Dissociation, number of participants ([2]; Total esketamine): 11 | Dissociative disorder, % of participants ([2]; Total esketamine): 13% | Dissociative disorder, number of participants ([2]; Total esketamine): 7 | Dizziness, % of participants ([2]; Total esketamine): 36% | Dizziness, number of participants ([2]; Total esketamine): 20 | Dysgeusia, % of participants ([2]; Total esketamine): 18% | Dysgeusia, number of participants ([2]; Total esketamine): 10 | Feeling abnormal, % of participants ([2]; Total esketamine): 7% | Feeling abnormal, number of participants ([2]; Total esketamine): 4 | Headache, % of participants ([2]; Total esketamine): 21% | Headache, number of participants ([2]; Total esketamine): 12 | Hypersomnia, % of participants ([2]; Total esketamine): 4% | Hypersomnia, number of participants ([2]; Total esketamine): 2 | Hypertension, % of participants ([2]; Total esketamine): 5% | Hypertension, number of participants ([2]; Total esketamine): 3 | Hypoesthesia oral, % of participants ([2]; Total esketamine): 13% | Hypoesthesia oral, number of participants ([2]; Total esketamine): 7 | Insomnia, % of participants ([2]; Total esketamine): 4% | Insomnia, number of participants ([2]; Total esketamine): 2 | Nasal discomfort, % of participants ([2]; Total esketamine): 5% | Nasal discomfort, number of participants ([2]; Total esketamine): 3 | Nausea, % of participants ([2]; Total esketamine): 18% | Nausea, number of participants ([2]; Total esketamine): 10 | Oropharyngeal pain, % of participants ([2]; Total esketamine): 5% | Oropharyngeal pain, number of participants ([2]; Total esketamine): 3 | Polyuria, % of participants ([2]; Total esketamine): 4% | Polyuria, number of participants ([2]; Total esketamine): 2 | Sedation, % of participants ([2]; Total esketamine): 7% | Sedation, number of participants ([2]; Total esketamine): 4 | Throat irritation, % of participants ([2]; Total esketamine): 5% | Throat irritation, number of participants ([2]; Total esketamine): 3 | Total with events, % of participants ([2]; Total esketamine): 75% | Total with events, number of participants ([2]; Total esketamine): 42 | Tunnel vision, % of participants ([2]; Total esketamine): 4% | Tunnel vision, number of participants ([2]; Total esketamine): 2 | Vertigo, % of participants ([2]; Total esketamine): 7% | Vertigo, number of participants ([2]; Total esketamine): 4 | Vision blurred, % of participants ([2]; Total esketamine): 4% | Vision blurred, number of participants ([2]; Total esketamine): 2 | Participants with adverse events leading to discontinuation of study drug ([2]; double-blind phase): 5% | Adverse event dizziness ([2]; open-label phase): 38.6% | Adverse event dysgeusia ([2]; open-label phase): 22.8% | Adverse event headache ([2]; open-label phase): 14.0% | Adverse event nausea ([2]; open-label phase): 15.8% | Adverse event sedation ([2]; open-label phase): 10.5% | Participants reporting transient dissociative symptoms ([2]; open-label phase): 24.6% | Participants with adverse events leading to discontinuation of study drug ([2]; open-label phase): 2% | Patients who withdrew from nasal spray drug (adult subjects with TRD): 3 patients
